Assay [1] relates to CXCR4. The settings on record: previous studies by others; read-out: IC50, inhibition of calcium mobilization; cited from earlier work. The source says:
To understand the receptor–ligand recognition mechanism involving CXCR4 and its antagonists, here in this study we conducted a series of comparative analyses of the biological activities and CXCR4 binding sites of eleven known CXCR4 antagonists, including the three mentioned above, using cell-based bioassays, CXCR4 site-directed mutagenesis and computer-aided molecular modeling.

In assay [2] the target is T1, CXCR4 (Homo sapiens, UniProt P61073). The assay can be described thus: CXCR4-mediated internalization assay, CHO cells expressing CXCR4-EGFP (confocal). It is filed as cell-based. On the set-up: expressed in transfected cells. The settings on record: same concentrations as in calcium mobilization assay; 50 nM SDF-1α; compared with their effect on calcium mobilization. As to the method: Figure 3 The inhibitory effect of the antagonists on CXCR4 internalization CHO cells expressed CXCR4-EGFP conjugates were seeded in 96-well plate with glass bottom. Untreated cells were used as a control. Cells were pre-treated with or without CXCR4 antagonists and internalized with 50 nM SDF-1α (scale bar: 5 μm). The concentrations of the antagonists used were the same as those for the calcium mobilization assay shown above. The data shown were representative of three independent experiments.
CXCR4 and EGFP were amplified using a primer shown in Supplementary Table S1. The pcDNA3 vector was digested by restriction-enzyme EcoR1 and Apa1. CXCR4 was digested by restriction-enzyme EcoR1 and Xba1. EGFP was digested by restriction-enzyme Xba1 and Apa1. CXCR4–EGFP conjugate was constructed by ligation of three DNA fragments using T4 ligase. The vector containing CXCR4 ligated EGFP at the C-terminus was transfected and expressed in CHO cells in 100 μl DMEM medium supplemented with 2% FBS at 1 × 10^5/ml which was seeded in 96-well black plate glass bottom and incubated at 37°C overnight. Following incubation with tested compounds for 10 min, 50 nM of SDF-1α was added to each well and the internalized CXCR4 was observed using a confocal microscopy (Zeiss LSM880).

Assay [3] addresses T1, CXCR4. On the set-up: expressed in transfected cells. As to conditions: previously published result; ref 42 (table footnote; text b13 cites 46); read-out: IC50 (nM), inhibition of 12G5 binding to CXCR4; cited from earlier work. The source says:
Table 1 Sequences and structures of eleven antagonists | column: IC50 (nM)

Positions of bridges follow the written chain, without caps; N, C: chain ends. Non-standard residues stand in square brackets, D forms with d. Residues, ends and D or L forms follow the SMILES beside them. Chains are numbered I, II in the order given. No end group written: not given here. 2Nal = N[C@@H](Cc1ccc2ccccc2c1)C(=O)O; Lys(iPr) = CC(C)NCCCC[C@H](N)C(=O)O

T1 sequence (P61073 whole entry): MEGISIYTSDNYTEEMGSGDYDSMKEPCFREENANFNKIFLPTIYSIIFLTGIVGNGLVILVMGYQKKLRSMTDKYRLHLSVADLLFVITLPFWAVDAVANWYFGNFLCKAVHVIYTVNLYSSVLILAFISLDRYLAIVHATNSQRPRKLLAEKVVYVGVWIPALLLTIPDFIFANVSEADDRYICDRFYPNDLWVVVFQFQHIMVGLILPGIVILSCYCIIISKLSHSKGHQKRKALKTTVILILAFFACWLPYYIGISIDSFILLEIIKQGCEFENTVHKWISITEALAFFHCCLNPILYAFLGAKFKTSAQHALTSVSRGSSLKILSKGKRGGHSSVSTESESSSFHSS

For `c1cc(CN2CCCNCCNCCCNCC2)ccc1CN1CCCNCCNCCCNCC1` [AMD3100], in the assay with CXCR4 [1], the concentration for half-maximal inhibition (IC50) was […].
Turning to `NCCCCN(Cc1nc2ccccc2[nH]1)[C@H]1CCCc2cccnc21` [AMD11070], the IC50 with CXCR4 [1] was 9 nM.
`CC(C)NCCCC[C@H](NC(=O)[C@H]1CCC(=O)N[C@@H](Cc2ccccc2)C(=O)N[C@@H](Cc2ccc(O)cc2)C(=O)N[C@@H](CCCCNC(C)C)C(=O)N[C@H](CCCNC(=N)N)C(=O)N[C@@H](Cc2ccc3ccccc3c2)C(=O)NCC(=O)N1)C(N)=O` [LY2510924] (FY[Lys(iPr)][dR][2Nal]G[dE][Lys(iPr)]-NH2; lactam N-7 (inferred)): at CXCR4 [2], the “Effect on blocking CXCR4 endocytosis (in words)” value is listed as “lessened effect”.
Take “I: [dL]G[dA][dS][dW][dH][dR][dP][dD][dK][dC][dC][dL]G[dY][dQ][dK][dR][dP][dL][dP] / II: [dL]G[dA][dS][dW][dH][dR][dP][dD][dK][dC][dC][dL]G[dY][dQ][dK][dR][dP][dL][dP] (disulfide I:11-II:11, I:12-II:12) [DV1 dimer]”: the “Effect on blocking CXCR4 endocytosis (in words)” value at CXCR4 [2] was “lessened effect”.
“LGASWHRPDKCCLGYQKRPLPQVLLSSWYPTSQLCSKPGVIFLTKRGRQVCADKSKDWVKKLMQQLPVTAR [vMIP-II, viral macrophage-inflammatory protein-II, full-length natural chemokine antagonist produced by human herpesvirus-8; recombinant from Peprotech]”: the IC50 at CXCR4 [3] is 10 nM.

As a reminder, the IC50 is the concentration needed to halve the response being measured.

The record behind these values is article PMC10987480, “Biological and mutational analyses of CXCR4–antagonist interactions and design of new antagonistic analogs” (Bioscience Reports, 2023).
